Patent publication US20240425479A1, “HALO-SUBSTITUTED AMINO AZA-HETEROARYL COMPOUNDS AS INHIBITORS OF THE HAEMATOPOIETIC PROGENITOR KINASE 1 (HPK1)” (priority 2021, published 2024)

Each compound was assayed against T1, Recombinant (1-346) HPK1 (h) (Homo sapiens, UniProt Q92918) (assay: HPK1 human STE kinase enzymatic radiometric assay). Settings: read-out: HPK1 IC50 nM Range.
T1 construct: Recombinant (1-346) HPK1 (h) is incubated with 8 mM MOPS pH 7.0
T1 sequence (Q92918 1-346): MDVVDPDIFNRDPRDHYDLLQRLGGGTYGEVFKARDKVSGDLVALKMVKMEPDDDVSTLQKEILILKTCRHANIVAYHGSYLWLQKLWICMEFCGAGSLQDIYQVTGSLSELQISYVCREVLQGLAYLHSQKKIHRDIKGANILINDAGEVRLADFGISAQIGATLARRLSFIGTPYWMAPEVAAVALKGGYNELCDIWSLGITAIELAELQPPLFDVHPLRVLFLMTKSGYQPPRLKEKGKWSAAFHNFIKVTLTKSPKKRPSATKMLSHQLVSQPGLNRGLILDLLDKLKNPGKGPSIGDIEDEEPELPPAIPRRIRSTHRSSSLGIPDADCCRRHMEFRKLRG
Format: biochemical
Summary of the method: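 Compounds in 3-fold, 9-point serial dilution; kinase (residues 1-346) phosphorylates myelin basic protein (0.33 mg/mL) using [gamma-33P]-ATP at pH 7.0 (MOPS, EDTA, Mg acetate) for 40 min, room temperature. Acid-quenched mixture filtered onto P30 mats; incorporated radioactivity read by scintillation counting.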

SMILES | IC50
Cc1nc2cc(-c3nc(-c4ccc(N5CCN(CCCC(F)F)CC5)cc4)c(F)nc3N)ccc2c(=O)[nH]1 [Example I-81, 7-(3-amino-6-(4-(4-(4,4-difluorobutyl)piperazin-1-yl)phenyl)-5-fluoropyrazin-2-yl)-2-methylquinazolin-4(3H)-one] | 11 to 100 nM
CN(C)Cc1cccc(-c2nc(-c3ccc4c(c3)CCNC4=O)c(N)nc2F)c1 [Example I-277, 6-(3-amino-6-(3-((dimethylamino)methyl)phenyl)-5-fluoropyrazin-2-yl)-3,4-dihydroisoquinolin-1(2H)-one] | 11 to 100 nM
Cc1c[nH]c(=O)c2ccc(-c3nc(-c4ccc5c(c4)[C@H](N(C)C)CO5)c(F)nc3N)cc12 [Example I-284, (S)-6-(3-amino-6-(3-(dimethylamino)-2,3-dihydrobenzofuran-5-yl)-5-fluoropyrazin-2-yl)-4-methylisoquinolin-1(2H)-one] | 11 to 100 nM
Cc1c[nH]c(=O)c2ccc(-c3nc(-c4cnc(N5CCOCC5)c(CN(C)C)c4)c(F)nc3N)cc12 [Example I-236, 6-(3-amino-6-(5-((dimethylamino)methyl)-6-morpholinopyridin-3-yl)-5-fluoropyrazin-2-yl)-4-methylisoquinolin-1(2H)-one] | 11 to 100 nM
Cc1c[nH]c(=O)c2ccc(-c3nc(-c4ccc(F)c(CN(C)C)c4)c(F)nc3N)cc12 [Example I-275, 6-(3-amino-6-(3-((dimethylamino)methyl)-4-fluorophenyl)-5-fluoropyrazin-2-yl)-4-methylisoquinolin-1(2H)-one] | 11 to 100 nM
CN(C)[C@@H]1COc2ccc(-c3nc(-c4cc(F)c5c(c4)CCNC5=O)c(N)nc3F)cc21 [Example I-254, (S)-6-(3-amino-6-(3-(dimethylamino)-2,3-dihydrobenzofuran-5-yl)-5-fluoropyrazin-2-yl)-8-fluoro-3,4-dihydroisoquinolin-1(2H)-one] | 11 to 100 nM
CCN(C)Cc1cc(-c2nc(-c3ccc4c(=O)[nH]cc(F)c4c3)c(N)nc2F)ccc1OC [Example I-300, 6-(3-amino-6-(3-((ethyl(methyl)amino)methyl)-4-methoxyphenyl)-5-fluoropyrazin-2-yl)-4-fluoroisoquinolin-1(2H)-one] | 11 to 100 nM
CCN(C)Cc1c(N2CCOCC2)ccc(-c2nc(-c3ccc4c(c3)CCNC4=O)c(N)nc2F)c1F [Example I-248, 6-(3-amino-6-(3-((ethyl(methyl)amino)methyl)-2-fluoro-4-morpholinophenyl)-5-fluoropyrazin-2-yl)-3,4-dihydroisoquinolin-1(2H)-one] | 11 to 100 nM
C[C@@H]1CCCN1Cc1cc(-c2nc(-c3cc(F)c4c(c3)CCNC4=O)c(N)nc2F)ccc1C1CCOCC1 [Example I-218, (R)-6-(3-amino-5-fluoro-6-(3-((2-methylpyrrolidin-1-yl)methyl)-4-(tetrahydro-2H-pyran-4-yl)phenyl)pyrazin-2-yl)-8-fluoro-3,4-dihydroisoquinolin-1(2H)-one] | 11 to 100 nM
COCCN(C)Cc1cc(-c2nc(-c3cc(F)c4c(c3)CCNC4=O)c(N)nc2F)ccc1N1CCOCC1 [Example I-162, 6-(3-amino-5-fluoro-6-(3-(((2-methoxyethyl)(methyl)amino)methyl)-4-morpholinophenyl)pyrazin-2-yl)-8-fluoro-3,4-dihydroisoquinolin-1(2H)-one] | 0.1 to 10 nM
CCN(C)Cc1cc(-c2nc(-c3ccc4c(c3)CCNC4=O)c(N)nc2F)cc(C)c1OC [Example I-297, 6-(3-amino-6-(3-((ethyl(methyl)amino)methyl)-4-methoxy-5-methylphenyl)-5-fluoropyrazin-2-yl)-3,4-dihydroisoquinolin-1(2H)-one] | 11 to 100 nM
Cc1cc2cc(-c3nc(-c4ccc(N5CCOCC5)c(CN(C)C)c4)c(F)nc3N)c(F)cc2c(=O)[nH]1 [Example I-183, 6-(3-amino-6-(3-((dimethylamino)methyl)-4-morpholinophenyl)-5-fluoropyrazin-2-yl)-7-fluoro-3-methylisoquinolin-1(2H)-one] | 0.1 to 10 nM
COC1CN(Cc2cc(-c3nc(-c4cc5c(cc4F)C(=O)NCC5)c(N)nc3F)ccc2C2CCOCC2)C1 [Example I-190, 6-(3-amino-5-fluoro-6-(3-((3-methoxyazetidin-1-yl)methyl)-4-(tetrahydro-2H-pyran-4-yl)phenyl)pyrazin-2-yl)-7-fluoro-3,4-dihydroisoquinolin-1(2H)-one] | 0.1 to 10 nM
C[C@@H]1CN(C)CCN1c1ccc(-c2nc(-c3ccc4c(c3)CCNC4=O)c(N)nc2F)cc1 [Example I-52, (R)-6-(3-amino-6-(4-(2,4-dimethylpiperazin-1-yl)phenyl)-5-fluoropyrazin-2-yl)-3,4-dihydroisoquinolin-1(2H)-one] | 0.1 to 10 nM

Now from value to compound:

IC50 | SMILES
0.1 to 10 nM | Cc1cc(-c2nc(-c3ccc4c(c3)CCNC4=O)c(N)nc2F)cc2c1CCN(C)C2 [Example I-294, 6-(3-amino-6-(2,5-dimethyl-1,2,3,4-tetrahydroisoquinolin-7-yl)-5-fluoropyrazin-2-yl)-3,4-dihydroisoquinolin-1(2H)-one]
0.1 to 10 nM | Cc1[nH]c(=O)c2ccc(-c3nc(-c4ccc(N5CCOCC5)c(CN(C)C)c4)c(F)nc3N)cc2c1F [Example I-101, 6-(3-amino-6-(3-((dimethylamino)methyl)-4-morpholinophenyl)-5-fluoropyrazin-2-yl)-4-fluoro-3-methylisoquinolin-1(2H)-one]
0.1 to 10 nM | C[C@H]1CN(c2ccc(-c3nc(-c4cc(F)c5c(c4)CCNC5=O)c(N)nc3F)cc2CN(C)C)CCO1 [Example I-213, (S)-6-(3-amino-6-(3-((dimethylamino)methyl)-4-(2-methylmorpholino)phenyl)-5-fluoropyrazin-2-yl)-8-fluoro-3,4-dihydroisoquinolin-1(2H)-one]
0.1 to 10 nM | COc1ccc(-c2nc(-c3cc4c(cc3F)C(=O)NCC4)c(N)nc2F)cc1CN(C)C [Example I-249, 6-(3-amino-6-(3-((dimethylamino)methyl)-4-methoxyphenyl)-5-fluoropyrazin-2-yl)-7-fluoro-3,4-dihydroisoquinolin-1(2H)-one]
0.1 to 10 nM | Cc1[nH]c(=O)c2c(F)cc(-c3nc(-c4ccc(N5CCN(C(C)C)CC5)cc4)c(F)nc3N)cc2c1F [Example I-111, 6-(3-amino-5-fluoro-6-(4-(4-isopropylpiperazin-1-yl)phenyl)pyrazin-2-yl)-4,8-difluoro-3-methylisoquinolin-1(2H)-one]
0.1 to 10 nM | CN(C)Cc1cc(-c2nc(-c3cc4c(cc3F)C(=O)NCC4)c(N)nc2F)ccc1N1CCOCC1 [Example I-65, 6-(3-amino-6-(3-((dimethylamino)methyl)-4-morpholinophenyl)-5-fluoropyrazin-2-yl)-7-fluoro-3,4-dihydroisoquinolin-1(2H)-one]
0.1 to 10 nM | C[C@@H]1CN(C)CCN1c1ccc(-c2nc(-c3cc4c(cc3F)C(=O)NCC4)c(N)nc2F)cc1 [Example I-53, (R)-6-(3-amino-6-(4-(2,4-dimethylpiperazin-1-yl)phenyl)-5-fluoropyrazin-2-yl)-7-fluoro-3,4-dihydroisoquinolin-1(2H)-one]
0.1 to 10 nM | CN1CCN(c2ccc(-c3nc(-c4ccc5c(c4)CCNC5=O)c(N)nc3F)cc2)CC1 [Example I-41, 6-(3-amino-5-fluoro-6-(4-(4-methylpiperazin-1-yl)phenyl)pyrazin-2-yl)-3,4-dihydroisoquinolin-1(2H)-one]
0.1 to 10 nM | COCCN(C)Cc1cc(-c2nc(-c3cc4c(cc3F)C(=O)NCC4)c(N)nc2F)ccc1N1CCOCC1 [Example I-161, 6-(3-amino-5-fluoro-6-(3-(((2-methoxyethyl)(methyl)amino)methyl)-4-morpholinophenyl)pyrazin-2-yl)-7-fluoro-3,4-dihydroisoquinolin-1(2H)-one]
0.1 to 10 nM | CN(C)[C@@H]1COc2ccc(-c3nc(-c4ccc5c(=O)[nH]cc(Cl)c5c4)c(N)nc3F)cc21 [Example I-252, (S)-6-(3-amino-6-(3-(dimethylamino)-2,3-dihydrobenzofuran-5-yl)-5-fluoropyrazin-2-yl)-4-chloroisoquinolin-1(2H)-one]
0.1 to 10 nM | Nc1nc(F)c(-c2ccc(N3CCOCC3)c(CN3CCCC3)c2)nc1-c1ccc2c(=O)[nH]cc(F)c2c1 [Example I-200, 6-(3-amino-5-fluoro-6-(4-morpholino-3-(pyrrolidin-1-ylmethyl)phenyl)pyrazin-2-yl)-4-fluoroisoquinolin-1(2H)-one]
0.1 to 10 nM | Cc1c[nH]c(=O)c2ccc(-c3nc(-c4ccc(C5CCOCC5)cc4)c(F)nc3N)cc12 [Example I-181, 6-(3-amino-5-fluoro-6-(4-(tetrahydro-2H-pyran-4-yl)phenyl)pyrazin-2-yl)-4-methylisoquinolin-1(2H)-one]
0.1 to 10 nM | Nc1nc(F)c(-c2ccc(N3CCOCC3)c(CN3CCC3)c2)nc1-c1ccc2c(c1)CCNC2=O [Example I-144, 6-(3-amino-6-(3-(azetidin-1-ylmethyl)-4-morpholinophenyl)-5-fluoropyrazin-2-yl)-3,4-dihydroisoquinolin-1(2H)-one]
0.1 to 10 nM | CN1CCN(c2ccc(-c3nc(-c4cc5c(cc4F)C(=O)NCC5)c(N)nc3F)cc2)CC1 [Example I-54, 6-(3-amino-5-fluoro-6-(4-(4-methylpiperazin-1-yl)phenyl)pyrazin-2-yl)-7-fluoro-3,4-dihydroisoquinolin-1(2H)-one]
